Data reported in paper PMC3670040, “Structure of Lipid Kinase p110β/p85β Elucidates an Unusual SH2-Domain-Mediated Inhibitory Mechanism” (Molecular Cell, 2011).
Square brackets hold non-standard residues; d marks the D form. Ends that are not written are not given here. pY = N[C@@H](Cc1ccc(OP(=O)(O)O)cc1)C(=O)O

Test system: p110β/p85β-nic
Experiment: ATPase activity (ADP formation) in the absence of lipid substrate, Transcreener
Assay type: biochemical, mouse
Conditions: p110β/p85-niSH2 and p110β/p85-icSH2 complexes; absence of lipid substrate
Procedure: Figure 1 Inhibition of p110β by p85-Type Regulatory Subunits and Activation of the Complexes by RTK Phosphopeptide (A) Domain organization of p110β and the regulatory subunits p85α, p85β, and p55γ. The color scheme for the domains is used for all figures, unless otherwise stated. […] The inhibition is released upon addition of the 10 μM PDGFR pY2. […] The y axis is expressed as a change in fluorescence polarization (ΔmP), which is obtained by subtracting the observed polarization for the construct at a given enzyme concentration from the maximum fluorescence polarization for that construct. The plateau in these assays arises due to the competitive nature of the ADP detection system, based on displacement of ADP-Alexa 633 tracer from the ADP^2-antibody by ADP generated during the PI3K assay (see Supplemental Experimental Procedures). All measurements were done in triplicates, and the error bars indicate the standard error of the mean (SEM). […]
The lipid kinase activity was determined using the Transcreener ADP2 FP Assay (BellBrook Labs, Madison, WI) according to manufacturer‟s specifications. This non-radioactive assay measures activity by quantitating the amount of ADP formed. The ADP formed by PI3K competes with fluorescent ADP tracer for binding to an anti-ADP antibody, thereby decreasing fluorescence polarization. […]

Question: For “ESDGG[pY]MDMSKDESID[pY]VPMLDMKGDIKYADIE [pY2, bis-phosphopeptide (PDGFR 735–767, with pY740 and pY751)]”, which “ATPase activity in the presence of pY2” value is on record?
Answer: Its value is “enhanced”.
